Laboratory results reported in patent US9174946B2, “Selective FAK inhibitors” (priority 2011, dated 2015).
Where two headings read alike, the source gives them in different places.

Columns and labels:
Y397-FAK phosphorylation = target: T1, Y397-FAK phosphorylation (Homo sapiens, UniProt Q05397); format: cell-based
T1 construct: endogenous in cells; host or cells: MDA-231-LNA cells
Experimental: The ability of compounds of the invention to inhibit FAK within cells can be assessed with an ELISA-type assay performed using a Meso Scale Discovery SECTOR Imager 6000 instrument. In this assay the ability of compounds of the invention to inhibit phosphorylation of Y397-FAK is determined.
P397Y-FAK Inhibition MSD Platform Cellular Biomarker Assay
96-well plates (cat #MA6000, Meso Scale Discovery) are coated with 30 μL/well of mouse monoclonal FAK antibody [63D5] (cat #ab72140, Abcam) pre-diluted in PBS to a concentration of 1 mg/L. The plates are sealed with adhesive film and incubated for 16 hours at 4° C. The antibody is then flicked out of the plates and 150 μL of 3% [w/v] Blocker A (cat #R93AA-1, Mesa Scale Discovery) is added. The plates are resealed with adhesive film and incubated at room temperature on a shaker set at medium speed for 2 hours. The plates are then washed three times with a solution containing 50 mM Tris-HCl pH 7.5, 0.15M NaCl and 0.02% Tween-20, before cell lysate addition described below.
Cells are split 1:2 into T150 cell culture flasks 2 days prior to compound treatment. […] The media/compounds are then flicked off and 55 μL/well of ice-cold complete lysis buffer is added. […] Plates are incubated on ice for 30 minutes, with 30 seconds high speed plate shaking every 5 minutes. 40 μL/well of cell lysate is transferred to the coated, blocked and washed 96-well microtitre plates described above. The 96-well plates are sealed with adhesive film and incubated for 16 hours at 4° C. The plates are then washed three times with a solution containing 50 mM Tris-HCl pH 7.5, 0.15M NaCl and 0.02% Tween-20 and tapped dry.
Plates are then washed three times with a solution containing 50 mM Tris-HCl pH 7.5, 0.15M NaCl and 0.02% Tween-20 and tapped dry.

[1] = tested on: HeyA8, SKOV3ip1, and HeyA8-MDR models; conditions: concomitant administration of TAE226 and docetaxel, all three models; cited from earlier work

T1 sequence (Q05397 whole entry): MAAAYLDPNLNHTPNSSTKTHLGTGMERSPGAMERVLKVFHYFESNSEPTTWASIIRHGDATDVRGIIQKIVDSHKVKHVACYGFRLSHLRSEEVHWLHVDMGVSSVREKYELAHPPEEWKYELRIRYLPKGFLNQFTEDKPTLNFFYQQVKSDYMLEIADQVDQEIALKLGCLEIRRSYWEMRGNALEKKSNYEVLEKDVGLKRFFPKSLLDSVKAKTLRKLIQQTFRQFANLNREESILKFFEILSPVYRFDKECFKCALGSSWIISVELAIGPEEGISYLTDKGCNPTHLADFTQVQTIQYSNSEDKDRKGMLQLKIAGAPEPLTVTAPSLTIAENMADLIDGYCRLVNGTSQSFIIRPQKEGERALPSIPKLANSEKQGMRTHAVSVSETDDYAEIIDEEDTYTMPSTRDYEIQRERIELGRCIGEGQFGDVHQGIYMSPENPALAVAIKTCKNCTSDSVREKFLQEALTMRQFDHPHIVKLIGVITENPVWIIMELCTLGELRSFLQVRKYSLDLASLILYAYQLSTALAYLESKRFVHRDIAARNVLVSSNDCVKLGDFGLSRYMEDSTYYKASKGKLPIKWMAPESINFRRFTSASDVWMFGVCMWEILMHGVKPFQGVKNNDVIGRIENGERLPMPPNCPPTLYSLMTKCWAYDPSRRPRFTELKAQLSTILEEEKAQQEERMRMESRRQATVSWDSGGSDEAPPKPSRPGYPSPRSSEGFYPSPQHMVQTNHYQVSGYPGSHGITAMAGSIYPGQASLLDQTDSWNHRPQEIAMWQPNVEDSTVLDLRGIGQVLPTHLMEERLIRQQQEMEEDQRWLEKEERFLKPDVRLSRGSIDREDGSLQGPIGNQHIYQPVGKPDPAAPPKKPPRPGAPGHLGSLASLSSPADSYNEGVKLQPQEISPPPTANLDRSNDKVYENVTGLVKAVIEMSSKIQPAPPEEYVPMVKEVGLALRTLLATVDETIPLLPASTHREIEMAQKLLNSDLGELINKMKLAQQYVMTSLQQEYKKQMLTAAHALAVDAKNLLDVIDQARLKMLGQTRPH

Structure (SMILES) | % response of control at 2 μM (Y397-FAK phosphorylation) | also measured
COc1cc(N2CCNCC2)ccc1Nc1ncc(C(F)(F)F)c(CCc2ccccc2CC(N)=O)n1 [Compound 1, 2-(2-(2-(2-((2-Methoxy-4-(piperazin-1-yl)phenyl)amino)-5-(trifluoromethyl)pyrimidin-4-yl)ethyl)phenyl)acetamide] |  | % response of control at 2 μM (Y397-FAK phosphorylation; MDA-231-LNA cells, relative to control compound at 2 μM): 122%
COc1cc(C2CCNCC2)ccc1Nc1ncc(C(F)(F)F)c(CCc2ccccc2CC(N)=O)n1 [Compound 2, 2-(2-(2-(2-((2-Methoxy-4-(piperidin-4-yl)phenyl)amino)-5-(trifluoromethyl)pyrimidin-4-yl)ethyl)phenyl)acetamide] | 91% | 
COc1cc(C2CCN(C)CC2)ccc1Nc1ncc(C(F)(F)F)c(CCc2ccccc2CC(N)=O)n1 [Compound 3, 2-(2-(2-(2-((2-Methoxy-4-(1-methylpiperidin-4-yl)phenyl)amino)-5-(trifluoromethyl)pyrimidin-4-yl)ethyl)phenyl)acetamide] | 102% | 
CCN1CCC(c2ccc(Nc3ncc(C(F)(F)F)c(CCc4ccccc4CC(N)=O)n3)c(OC)c2)CC1 [Compound 4, 2-(2-(2-(2-((4-(1-Ethylpiperidin-4-yl)-2-methoxyphenyl)amino)-5-(trifluoromethyl)pyrimidin-4-yl)ethyl)phenyl)acetamide] | 108% | 
COc1cc(C2CCN(C)CC2)ccc1Nc1ncc(C(F)(F)F)c(CCc2cccc(C(N)=O)c2)n1 [Compound 6, 3-(2-(2-((2-Methoxy-4-(1-methylpiperidin-4-yl)phenyl)amino)-5-(trifluoromethyl)pyrimidin-4-yl)ethyl)benzamide] | 80% | 
NC(=O)Cc1ccccc1CCc1nc(Nc2ccc(C3CCNCC3)cc2OC(F)(F)F)ncc1C(F)(F)F [Compound 10, 2-(2-(2-(2-((4-(Piperidin-4-yl)-2-(trifluoromethoxy)phenyl)amino)-5-(trifluoromethyl)pyrimidin-4yl)ethyl)phenyl)acetamide] | 116% | 
CN1CCC(c2ccc(Nc3ncc(C(F)(F)F)c(CCc4ccccc4CC(N)=O)n3)c(OC(F)(F)F)c2)CC1 [Compound 11, 2-(2-(2-(2-((4-(1-Methylpiperidin-4-yl)-2-(trifluoromethoxy)phenyl)amino)-5-(trifluoromethyl)pyrimidin-4-yl)ethyl)phenyl)acetamide] | 117% | 
CN1CCC(c2ccc(Nc3ncc(C(F)(F)F)c(CCc4ccccc4CC(N)=O)n3)c(F)c2)CC1 [Compound 13, 2-(2-(2-(2-((2-Fluoro-4-(1-methylpiperidin-4-yl)phenyl)amino)-5-(trifluoromethyl)pyrimidin-4-yl)ethyl)phenyl)acetamide] | 90% | 
CNC(=O)c1ccccc1Nc1nc(Nc2ccc(N3CCOCC3)cc2OC)ncc1Cl [TAE226] |  | reduction of tumour burden [1]: 85-97%
